Reference: ChEMBL document CHEMBL5329205, “Development of novel quinoline-NO donor hybrids inducing human breast cancer cells apoptosis via inhibition of topoisomerase I” (Bioorg Med Chem, 2023)
Activity calls are given as the source filed them. No cut-off for these calls is given here.

Columns and labels:
A549 = assay: Antiproliferative activity against human A549 cells assessed as inhibition of cell growth incubated for 48 hrs by MTT assay; type: functional, cell-based; settings: A549, 48 h
HCT-116 = assay: Antiproliferative activity against human HCT-116 cells assessed as inhibition of cell growth incubated for 48 hrs by MTT assay; type: functional, cell-based; settings: HCT-116, 48 h
NCI/ADR-RES = assay: Antiproliferative activity against human MCF7ADR cells assessed as inhibition of cell growth measured after 48 hrs by MTT assay; type: functional, cell-based
MCF7 [1] = assay: Antiproliferative activity against human MCF7 cells assessed as NO release at 4 uM preincubated with PTIO for 2 hrs followed by compound addition and measured after 24 hrs by total nitric oxide assay; type: functional, cell-based
MCF7 [2] = assay: Induction of apoptosis in human MCF7 cells assessed as upregulation of Bax expression incubated for 24 hrs by Western blot analysis; type: functional, cell-based; settings: dose 1-4 µM
MCF7 [3] = assay: Induction of apoptosis in human MCF7 cells assessed as late apoptotic cells at 3 uM incubated for 48 hrs by Annexin-V/PI FITC staining based flow cytometry analysis (reference value: 0.0%); type: functional
MCF7 [4] = assay: Induction of cell cycle arrest in human MCF7 cells assessed as G1 phase cells at 0.75 uM incubated for 24 hrs by PI/RNaseA staining based flow cytometry analysis (reference value: 66.08 %); type: functional
MCF7 [5] = assay: Induction of cell cycle arrest in human MCF7 cells assessed as S phase cells at 1.5 uM incubated for 24 hrs by PI/RNaseA staining based flow cytometry analysis (reference value: 22.2 %); type: functional
MCF7 [6] = assay: Induction of cell cycle arrest in human MCF7 cells assessed as S phase cells at 3 uM incubated for 24 hrs by PI/RNaseA staining based flow cytometry analysis (reference value: 22.2 %); type: functional
MCF7 [7] = assay: Induction of cell cycle arrest in human MCF7 cells assessed as G2 phase cells at 3 uM incubated for 24 hrs by PI/RNaseA staining based flow cytometry analysis (reference value: 7.67 %); type: functional
[8] = target: ATP-dependent translocase ABCB1 (Homo sapiens, UniProt P08183); assay: Inhibition of P-glycoprotein mediated Rhodamine-123 transport in human MCF7ADR cells assessed as increase in fluorescence index of rhodamine-123 at 1.5 to 3 uM incubated for 24 hrs by flow cytometry analysis; type: cell-based; settings: dose 1.5-3 µM
MCF7 [9] = assay: Antitumor activity against human MCF7 cells xenografted in BALB/c nude mouse assessed as reduction in tumor volume at 5 mg/kg, ip administered once every two days for 3 weeks; type: functional, organism-based
MCF7 [10] = assay: Antitumor activity against human MCF7 cells xenografted in BALB/c nude mouse assessed as reduction in tumor weight at 10 mg/kg, ip administered once every two days for 3 weeks relative to control; type: functional; set-up: scale not given: the % may be the effect or the level left
[11] = Toxicity in BALB/c nude mouse xenografted with human MCF7 cells assessed as heart damage at 5 mg/kg, ip administered once every two days for 3 weeks by H and E staining based microscopic analysis; type: organism-based; settings: in vivo, 504 h
[12] = Toxicity in BALB/c mouse xenografted with human MCF7 cells assessed as lung damage at 5 mg/kg, ip administered once every two days for 3 weeks by H and E staining based microscopic analysis; type: organism-based; settings: in vivo, 504 h
[13] = Toxicity in BALB/c mouse xenografted with human MCF7 cells assessed as kidney damage at 5 mg/kg, ip administered once every two days for 3 weeks by H and E staining based microscopic analysis; type: organism-based; settings: in vivo, 504 h
[14] = Toxicity in BALB/c mouse xenografted with human MCF7 cells assessed as liver damage at 10 mg/kg, ip administered once every two days for 3 weeks by H and E staining based microscopic analysis; type: organism-based; settings: in vivo, 504 h
[15] = Toxicity in BALB/c mouse xenografted with human MCF7 cells assessed as spleen damage at 10 mg/kg, ip administered once every two days for 3 weeks by H and E staining based microscopic analysis; type: organism-based; settings: in vivo, 504 h
MCF7 [16] = assay: Induction of apoptosis in human MCF7 cells assessed as viable cells at 0.75 uM incubated for 48 hrs by Annexin-V/PI staining based flow cytometry analysis (reference value: 99.7%); type: functional; settings: read-out: Activity
MCF7 [17] = assay: Induction of apoptosis in human MCF7 cells assessed as late apoptotic cells at 0.75 uM incubated for 48 hrs by Annexin-V/PI staining based flow cytometry analysis (reference value: 0.0%); type: functional
MCF7 [18] = assay: Induction of apoptosis in human MCF7 cells assessed as necrotic cells at 0.75 uM incubated for 48 hrs by Annexin-V/PI staining based flow cytometry analysis (reference value: 0.0%); type: functional
MCF7 [19] = assay: Induction of apoptosis in human MCF7 cells assessed as early apoptotic cells at 1.5 uM incubated for 48 hrs by Annexin-V/PI staining based flow cytometry analysis (reference value: 0.3%); type: functional
MCF7 [20] = assay: Induction of apoptosis in human MCF7 cells assessed as necrotic cells at 1.5 uM incubated for 48 hrs by Annexin-V/PI staining based flow cytometry analysis (reference value: 0.0%); type: functional

Sequence of ATP-dependent translocase ABCB1 (P08183 whole entry): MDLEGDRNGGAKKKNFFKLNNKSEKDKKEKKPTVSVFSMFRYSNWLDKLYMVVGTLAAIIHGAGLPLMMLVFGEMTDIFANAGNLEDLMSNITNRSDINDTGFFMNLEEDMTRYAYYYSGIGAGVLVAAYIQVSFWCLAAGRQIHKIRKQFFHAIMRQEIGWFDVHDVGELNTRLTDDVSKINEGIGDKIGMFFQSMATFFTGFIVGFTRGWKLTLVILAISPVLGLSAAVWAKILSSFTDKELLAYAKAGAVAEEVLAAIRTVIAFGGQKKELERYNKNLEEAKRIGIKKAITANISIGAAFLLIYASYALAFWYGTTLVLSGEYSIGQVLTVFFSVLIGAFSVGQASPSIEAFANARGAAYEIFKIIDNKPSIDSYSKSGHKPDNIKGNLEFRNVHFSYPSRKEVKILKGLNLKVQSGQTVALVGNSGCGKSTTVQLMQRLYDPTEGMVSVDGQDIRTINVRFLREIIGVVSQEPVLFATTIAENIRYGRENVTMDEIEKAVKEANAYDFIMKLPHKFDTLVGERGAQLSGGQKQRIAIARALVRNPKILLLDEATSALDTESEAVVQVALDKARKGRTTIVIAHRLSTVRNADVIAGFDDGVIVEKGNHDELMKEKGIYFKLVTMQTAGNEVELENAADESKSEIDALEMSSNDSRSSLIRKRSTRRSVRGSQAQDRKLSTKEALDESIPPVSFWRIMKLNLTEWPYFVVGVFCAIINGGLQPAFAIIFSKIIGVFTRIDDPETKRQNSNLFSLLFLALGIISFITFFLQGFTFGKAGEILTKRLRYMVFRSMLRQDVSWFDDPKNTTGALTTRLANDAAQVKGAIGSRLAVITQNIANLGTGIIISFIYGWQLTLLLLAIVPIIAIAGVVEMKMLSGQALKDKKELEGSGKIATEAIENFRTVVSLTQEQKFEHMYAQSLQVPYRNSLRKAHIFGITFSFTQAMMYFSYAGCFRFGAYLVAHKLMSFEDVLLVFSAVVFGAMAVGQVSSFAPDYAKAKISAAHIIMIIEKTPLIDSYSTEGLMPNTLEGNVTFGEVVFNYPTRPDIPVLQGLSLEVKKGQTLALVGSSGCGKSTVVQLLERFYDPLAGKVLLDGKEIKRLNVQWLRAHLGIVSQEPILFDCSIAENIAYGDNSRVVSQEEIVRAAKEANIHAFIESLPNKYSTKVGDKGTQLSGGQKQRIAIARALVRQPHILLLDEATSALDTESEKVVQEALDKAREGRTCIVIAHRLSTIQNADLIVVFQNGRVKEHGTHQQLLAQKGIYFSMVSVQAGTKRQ

For `COc1cc(-c2cc(C(=O)OCCCCCOc3no[n+]([O-])c3S(=O)(=O)c3ccccc3)c3ccccc3n2)cc(OC)c1OC`, the IC50 (A549) was 2.13 µM, the IC50 (HCT-116) was 2.48 µM and the IC50 (NCI/ADR-RES) was 0.62 µM. For the same compound, the Activity (MCF7 [1]) was “inactive”, the Activity (MCF7 [2]) was “Dose-Dependent Effect” and the Activity (MCF7 [3]) was 50%. For the same compound, the Activity (MCF7 [4]) was 65.47%, the Activity (MCF7 [5]) was 20.71% and the Activity (MCF7 [6]) was 17.82%. The Activity (MCF7 [7]) was 23.52%, the “inhibition (INH)” value [8] was “Active” and the Activity (MCF7 [9]) was “Active”. For the same compound, the Activity (MCF7 [10]) was 66.79%, the Activity [11] was “Non-Toxic” and the Activity [12] was “Non-Toxic”. For the same compound, the Activity [13] was “Non-Toxic”, the Activity [14] was “Non-Toxic” and the Activity [15] was “Non-Toxic”. For the same compound, the viability at 0.75 µM (MCF7 [16]) was 67.1%, the Activity (MCF7 [17]) was 18% and the Activity (MCF7 [18]) was 3%. The Activity (MCF7 [19]) was 13.2% and the Activity (MCF7 [20]) was 3.3%.
